Reference: the NIST ThermoML archive (doi:10.1016/j.jct.2013.01.009)
“And” between values parts separate entries of the source, which are not always exact repeats. Equal values may be shown once. Numbers after ± are expanded uncertainties.

How the values were obtained:
[1] = for vapor or sublimation pressure: Closed cell (Static) method
[2] = molar heat capacity at constant pressure; conditions: 101.33 kPa
[3] = Molar enthalpy of transition or fusion; conditions: Crystal; DSC
[4] = molar enthalpy of vaporization or sublimation; conditions: 298.15 K, Static calorimetry

C=C1CC[C@H]2C[C@@H]1C2(C)C [(1S,5S)-6,6-dimethyl-2-methylenebicyclo[3.1.1]heptane]
[1], Liquid
Conditions | vapor or sublimation pressure
248.13 K | 0.00844 ± 0.00034 kPa and 0.00845 ± 0.00034 kPa
253.14 K | 0.01345 ± 0.00052 kPa and 0.01346 ± 0.00052 kPa
258.15 K | 0.021 ± 0.00067 kPa and 0.02101 ± 0.00067 kPa
263.15 K | 0.03214 ± 0.0009 kPa and 0.03213 ± 0.0009 kPa
268.15 K | 0.04828 ± 0.0012 kPa and 0.04829 ± 0.0012 kPa
273.65 K | 0.07411 ± 0.0018 kPa and 0.07418 ± 0.0018 kPa
278.15 K | 0.1037 ± 0.0024 kPa and 0.1038 ± 0.0024 kPa
283.15 K | 0.1485 ± 0.0031 kPa
288.15 K | 0.2093 ± 0.0042 kPa and 0.2094 ± 0.0042 kPa and 0.2095 ± 0.0042 kPa
293.15 K | 0.291 ± 0.0056 kPa and 0.2911 ± 0.0056 kPa
298.15 K | 0.4 ± 0.0075 kPa
303.15 K | 0.5419 ± 0.0099 kPa and 0.542 ± 0.0099 kPa
308.15 K | 0.7254 ± 0.013 kPa and 0.7255 ± 0.013 kPa and 0.7256 ± 0.013 kPa

[2], Liquid, Large sample (1 g) DSC
Conditions | molar heat capacity at constant pressure [J/K/mol]
273.4 K | 230.06 ± 4
278.5 K | 232.64 ± 4
283.6 K | 235.22 ± 4.1
288.7 K | 237.96 ± 4.2
293.8 K | 240.62 ± 4.2
298.9 K | 243.36 ± 4.2
304 K | 245.94 ± 4.2
309.1 K | 248.19 ± 4.3
314.2 K | 251.01 ± 4.3
319.4 K | 254.17 ± 4.4
324.5 K | 256.75 ± 4.4
329.6 K | 260.08 ± 4.5
334.7 K | 262.9 ± 4.6
339.8 K | 266.4 ± 4.7
344.9 K | 269.47 ± 4.7
350 K | 272.05 ± 4.7
355.1 K | 275.21 ± 4.7

CC1=C[C@H](O)[C@H]2C[C@@H]1C2(C)C [(-)-cis-verbenol]
[1]
Conditions | Normal melting temperature, Crystal [°C] | vapor or sublimation pressure, 273.15 K | vapor or sublimation pressure, 278.15 K | vapor or sublimation pressure, 283.15 K [kPa] | vapor or sublimation pressure, 288.15 K | vapor or sublimation pressure, 293.15 K | vapor or sublimation pressure, 298.15 K | vapor or sublimation pressure, 303.15 K [kPa] | vapor or sublimation pressure, 308.15 K | vapor or sublimation pressure, 313.15 K
Crystal | – | 0.00025 ± 9e-05 kPa and 0.00026 ± 9e-05 kPa | 0.00049 ± 0.0001 kPa and 0.0005 ± 0.0001 kPa | 0.00092 ± 0.0001 | 0.00169 ± 0.00012 kPa and 0.00168 ± 0.00012 kPa | 0.003 ± 0.00016 kPa and 0.00301 ± 0.00016 kPa | 0.00523 ± 0.00023 kPa and 0.00528 ± 0.00023 kPa and 0.00529 ± 0.00023 kPa | 0.00906 ± 0.00037 | 0.01518 ± 0.00055 kPa and 0.01523 ± 0.00055 kPa and 0.01524 ± 0.00055 kPa | 0.02515 ± 0.0007 kPa and 0.02516 ± 0.0007 kPa and 0.02517 ± 0.0007 kPa
DTA | 70.5 ± 0.7 | – | – | – | – | – | – | – | – | –

Conditions | Molar enthalpy of transition or fusion [kcal/mol]
[3] | 4.18 ± 0.167

[2]
Conditions | molar heat capacity at constant pressure [J/K/mol]
273.4 K, Crystal, Large sample (1 g) DSC | 217.51 ± 3.7
278.5 K, Crystal, Large sample (1 g) DSC | 222.58 ± 3.8
283.6 K, Crystal, Large sample (1 g) DSC | 228.98 ± 4
288.7 K, Crystal, Large sample (1 g) DSC | 235.38 ± 4.1
293.8 K, Crystal, Large sample (1 g) DSC | 242.28 ± 4.2
298.15 K, Crystal, Drop calorimetry | 233.55 ± 24
298.9 K, Crystal, Large sample (1 g) DSC | 250.18 ± 4.3
304 K, Crystal, Large sample (1 g) DSC | 259 ± 4.5
309.1 K, Crystal, Large sample (1 g) DSC | 269.14 ± 4.7
344.9 K, Liquid, Large sample (1 g) DSC | 372.99 ± 19
350 K, Liquid, Large sample (1 g) DSC | 377.14 ± 20
355.1 K, Liquid, Large sample (1 g) DSC | 381.47 ± 20

Conditions | molar enthalpy [kcal/mol]
[4], Crystal | 19.1 ± 0.311

CC1=CC(=O)[C@H]2C[C@@H]1C2(C)C [(-)-verbenone]
[1], Liquid
Conditions | vapor or sublimation pressure
273.65 K | 0.00181 ± 0.00015 kPa and 0.00183 ± 0.00015 kPa
273.66 K | 0.00181 ± 0.00015 kPa
278.15 K | 0.00278 ± 0.00017 kPa
278.16 K | 0.00276 ± 0.00017 kPa and 0.00277 ± 0.00017 kPa
283.15 K | 0.00436 ± 0.00021 kPa and 0.00437 ± 0.00021 kPa
288.15 K | 0.00676 ± 0.00028 kPa and 0.00678 ± 0.00028 kPa and 0.00675 ± 0.00028 kPa
293.15 K | 0.01031 ± 0.00042 kPa
293.16 K | 0.01032 ± 0.00042 kPa and 0.01035 ± 0.00042 kPa
298.15 K | 0.01545 ± 0.00056 kPa and 0.01546 ± 0.00056 kPa and 0.01547 ± 0.00056 kPa
303.15 K | 0.02273 ± 0.00071 kPa and 0.02278 ± 0.00071 kPa and 0.02281 ± 0.00071 kPa
308.16 K | 0.03304 ± 0.00092 kPa and 0.03307 ± 0.00092 kPa and 0.03309 ± 0.00092 kPa

[2], Liquid
Conditions | molar heat capacity at constant pressure [J/K/mol]
273.4 K, Large sample (1 g) DSC | 258.83 ± 4.5
278.5 K, Large sample (1 g) DSC | 260.99 ± 4.5
283.6 K, Large sample (1 g) DSC | 262.32 ± 4.6
288.7 K, Large sample (1 g) DSC | 264.07 ± 4.6
293.8 K, Large sample (1 g) DSC | 266.73 ± 4.7
298.15 K, Drop calorimetry | 270.55 ± 6.3
298.9 K, Large sample (1 g) DSC | 269.39 ± 4.7
304 K, Large sample (1 g) DSC | 270.47 ± 4.7
309.1 K, Large sample (1 g) DSC | 273.05 ± 4.7
314.2 K, Large sample (1 g) DSC | 275.62 ± 4.7
319.4 K, Large sample (1 g) DSC | 276.87 ± 4.8
324.5 K, Large sample (1 g) DSC | 279.45 ± 4.8
329.6 K, Large sample (1 g) DSC | 281.69 ± 4.9
334.7 K, Large sample (1 g) DSC | 284.69 ± 4.9
339.8 K, Large sample (1 g) DSC | 286.93 ± 5
344.9 K, Large sample (1 g) DSC | 289.68 ± 5
350 K, Large sample (1 g) DSC | 292 ± 5.1
355.1 K, Large sample (1 g) DSC | 294.42 ± 5.1

Conditions | molar enthalpy [kcal/mol]
[4], Liquid | 14.1 ± 0.359

CC1=CC[C@H]2C[C@@H]1C2(C)C [(S)-2-pinene]
[1], Liquid
Conditions | vapor or sublimation pressure
238.19 K | 0.0053 ± 0.00023 kPa
243.2 K | 0.00874 ± 0.00035 kPa and 0.00875 ± 0.00036 kPa
253.19 K | 0.02209 ± 0.00069 kPa and 0.0221 ± 0.00069 kPa
258.2 K | 0.03413 ± 0.00094 kPa and 0.03415 ± 0.00094 kPa and 0.03412 ± 0.00094 kPa
263.19 K | 0.05172 ± 0.0013 kPa
268.19 K | 0.07688 ± 0.0019 kPa and 0.07689 ± 0.0019 kPa and 0.07691 ± 0.0019 kPa
273.65 K | 0.1164 ± 0.0027 kPa
273.66 K | 0.1164 ± 0.0027 kPa
278.16 K | 0.1615 ± 0.0033 kPa and 0.1614 ± 0.0033 kPa
283.15 K | 0.2288 ± 0.0045 kPa
288.15 K | 0.3195 ± 0.0061 kPa and 0.3196 ± 0.0061 kPa
293.15 K | 0.4403 ± 0.0082 kPa and 0.4404 ± 0.0082 kPa
298.15 K | 0.599 ± 0.011 kPa and 0.5991 ± 0.011 kPa
303.15 K | 0.8053 ± 0.015 kPa
303.16 K | 0.8056 ± 0.015 kPa and 0.8057 ± 0.015 kPa
308.17 K | 1.071 ± 0.019 kPa
308.18 K | 1.071 ± 0.019 kPa

[2], Liquid, Large sample (1 g) DSC
Conditions | molar heat capacity at constant pressure [J/K/mol]
273.4 K | 239.62 ± 4.2
278.5 K | 242.37 ± 4.2
283.6 K | 244.61 ± 4.2
288.7 K | 247.11 ± 4.2
293.8 K | 249.27 ± 4.3
298.9 K | 253.09 ± 4.4
304 K | 255.34 ± 4.4
309.1 K | 257.83 ± 4.5
314.2 K | 260.41 ± 4.5
319.4 K | 262.57 ± 4.6
324.5 K | 266.15 ± 4.6
329.6 K | 268.97 ± 4.7
334.7 K | 272.3 ± 4.7
339.8 K | 274.88 ± 4.7
344.9 K | 278.7 ± 4.8
350 K | 282.11 ± 4.9
355.1 K | 284.44 ± 4.9
